MIC data for five compounds are collected here from US4975538A, “Antibiotic sulfonylaminocarbonyl activated beta-lactams” (The Upjohn Company, priority 1989, dated 1990).

≈ marks a conversion by molar mass, not a printed value.

Holding throughout (test): Minimum Inhibitory Concentration (MIC), agar dilution in Mueller Hinton Agar
Holding throughout (assay type): cell-based
Background: In agar dilution the substance is mixed into plates at graded concentrations.

Test [1] relates to Escherichia Coli. The settings on record: 20 h. On the procedure: (§1) The compounds of this invention and their respective pharmaceutically acceptable salts have antibiotic activity against a variety of gram-negative bacteria including Escherichia coli, Klebsiella pneumoniae, and Pseudomonas aeruginosa. The compounds are useful for treating bacterial infections in animals, including and most preferably humans. Compounds of the invention are tested for in vitro antimicrobial activity using standard testing procedures such as the determination of minimum inhibitory concentration (MIC) by methods described in "Methods for Dilution Antimicrobial Susceptibility Tests for Bacteria That Grow Aerobically" (M7-A) Published December 1985 by the National Committee for Clinical Laboratory Standards, 771 East Lancaster Avenue, Villanova, Pa. 19084. Briefly, MIC values are determined in unsupplemented Mueller Hinton Agar (MHA). The compounds tested are diluted serially into molten MHA at 47° C. The agar is poured into petri dishes and allowed to harden. The various bacteria used for testing are grown overnight on MHA at 35° C. and transferred to Tryptiease Soy Broth (TSB) until a turbidity of 0.5 McFarland standard is obtained. The bacteria are diluted one to twenty in TSB and inoculated on the plates (1 μl using a Steers replicator).

In test [2] the test system is Staphylococcus epidermidis. The settings on record: 20 h, culture number 30031. On the procedure:
as §1

Test [3] concerns Pseudomonas Aeruginosa. The settings on record: 20 h. As to the method:
as §1

Test [4] deals with Citrobacter Freundli. The settings on record: 20 h, culture number 3507. On the procedure:
as §1

The test system of test [5] is Serratia Marcescens. To be noted: 20 h, culture number 6888. As to the method: as §1
Test [6] has as its system Klebsiella Pneumoniae. To be noted: 20 h, culture number 58. On the procedure:
as §1

In test [7] the test system is Streptococcus Faecalis. The settings on record: Enterococcus faecalis, 20 h; culture number 694. On the procedure:
as §1

For test [8], the system named is Staphylococcus Aureus. The settings on record: 20 h. On the procedure: as §1
The test system of test [9] is Streptococcus Pneumoniae. To be noted: 20 h, culture number 41. On the procedure: as §1
Test [10] concerns Klebsiella Oxytoca. To be noted: 20 h. As to the method: as §1
Test [11] has as its system Enterobacter Cloacae. The settings on record: 20 h. On the procedure:
as §1

Test [12] concerns Proteus Vulgaris. To be noted: 20 h, culture number 9679. On the procedure:
as §1

Test [13] deals with Streptococcus Pyogenes. The settings on record: 20 h, culture number 152. As to the method:
as §1

The term MIC denotes the lowest concentration found to suppress growth. Turning to `Nc1nc(/C(=N/OCC(=O)O)C(=O)N[C@H]2CN(C(=O)NS(=O)(=O)N3CCN(NC(=O)c4[nH]ccc(=O)c4O)C3=O)C2=O)cs1` [Compound E40, Acetic acid, [[[1-(2-amino-4-thiazolyl)-2-[[1-[[[[3-[[(1,4-dihydro-3-hydroxy-4-oxo-2-pyridinyl)carbonyl]amino]-2-oxo-1-imidazolidinyl]sulfonyl]-amino]carbonyl]-2-oxo-3-azetidinyl]amino]-2-oxoethylidene]amino]oxy]-, [S-(Z)]-], the MIC is 0.5 µg/mL (≈ 0.762 µM) in test [1] (culture number 9379); 1 µg/mL (≈ 1.52 µM) in test [1] (culture number 9380); 0.5 µg/mL (≈ 0.762 µM) in test [1] (culture number 9451); more than 64 µg/mL in [2]; 64 µg/mL (≈ 97.5 µM) in [3] (culture number 231); 64 µg/mL (≈ 97.5 µM) in [3] (culture number 9191). Moreover, the MIC is 0.25 µg/mL (≈ 0.381 µM) in test [4]; 2 µg/mL (≈ 3.05 µM) in [5]; 0.5 µg/mL (≈ 0.762 µM) in [6]; more than 64 µg/mL in test [7]; more than 64 µg/mL in [8] (culture number 3665); more than 64 µg/mL in test [8] (culture number 6685). In addition, the MIC in test [8] (culture number 9213) was more than 64 µg/mL; in test [8] (culture number 9218), more than 64 µg/mL; in test [9], more than 64 µg/mL; in test [10] (culture number 9383), 2 µg/mL (≈ 3.05 µM); in test [10] (culture number 9384) it was 0.5 µg/mL (≈ 0.762 µM); in [11] (culture number 9381) it was 64 µg/mL (≈ 97.5 µM). For the same compound, the MIC is 1 µg/mL (≈ 1.52 µM) in test [11] (culture number 9382), 0.25 µg/mL (≈ 0.381 µM) in [12] and 64 µg/mL (≈ 97.5 µM) in test [13].

For the compound `Cn1cc(O)c(=O)cc1C(=O)NN1CCN(S(=O)(=O)NC(=O)N2C[C@H](NC(=O)/C(=N\OC(C)(C)C(=O)O)c3csc(N)n3)C2=O)C1=O` [E42 (a)], the MIC in [1] (culture number 9379) is 0.06 µg/mL (≈ 0.0859 µM); in test [1] (culture number 9380) it was less than 0.015 µg/mL; in test [1] (culture number 9451), 0.06 µg/mL (≈ 0.0859 µM); in test [3] (culture number 231), 2 µg/mL (≈ 2.86 µM); in [3] (culture number 9191), 2 µg/mL (≈ 2.86 µM); in test [4], 0.5 µg/mL (≈ 0.716 µM). Moreover, the MIC in test [5] was 0.25 µg/mL (≈ 0.358 µM); in test [6], 2 µg/mL (≈ 2.86 µM); in test [7], more than 128 µg/mL; in test [8] (culture number 3665), more than 128 µg/mL; in test [8] (culture number 6685), more than 128 µg/mL; in [8] (culture number 9218), more than 128 µg/mL. For the same compound, the MIC was more than 128 µg/mL in [9]; 1 µg/mL (≈ 1.43 µM) in test [10] (culture number 9383); 0.5 µg/mL (≈ 0.716 µM) in test [10] (culture number 9384); 64 µg/mL (≈ 91.6 µM) in test [11] (culture number 9381); 4 µg/mL (≈ 5.73 µM) in [11] (culture number 9382); 0.5 µg/mL (≈ 0.716 µM) in [12]. For the same compound, the lowest concentration to inhibit growth in test [13] (MIC) was 128 µg/mL (≈ 183 µM).

`CCCCn1cc(O)c(=O)cc1C(=O)NN1CCN(S(=O)(=O)NC(=O)N2C[C@H](NC(=O)/C(=N\OC(C)(C)C(=O)O)c3csc(N)n3)C2=O)C1=O` [E42 (b), Propanoic acid, 2-[[[1-(2-amino-4-thiazolyl)-2-[[1-[[[[3-[[(1-butyl-1,4-dihydro-5-hydroxy-4-oxo-2-pyridinyl)carbonyl]amino]-2-oxo-1-imidazolidinyl]sulfonyl]amino]carbonyl]-2-oxo-3-azetidinyl]amino]-2-oxoethylidene]amino]oxy]-2-methyl-, [S-(Z)]-]: the MIC in test [1] (culture number 9379) is 0.5 µg/mL (≈ 0.675 µM); in test [1] (culture number 9380) it was 0.25 µg/mL (≈ 0.338 µM); in test [1] (culture number 9451), 0.5 µg/mL (≈ 0.675 µM); in [3] (culture number 231), more than 64 µg/mL; in [3] (culture number 9191) it was 64 µg/mL (≈ 86.4 µM); in [4], 2 µg/mL (≈ 2.7 µM). Further, the MIC in test [5] is 1 µg/mL (≈ 1.35 µM); in [6] it was 0.5 µg/mL (≈ 0.675 µM); in test [7] it was more than 64 µg/mL; in test [8] (culture number 3665), more than 64 µg/mL; in [8] (culture number 6685) it was more than 64 µg/mL; in test [8] (culture number 9218), more than 64 µg/mL. The MIC in test [9] is more than 64 µg/mL; in [10] (culture number 9383) it was 4 µg/mL (≈ 5.4 µM); in test [10] (culture number 9384), 0.25 µg/mL (≈ 0.338 µM); in test [11] (culture number 9381), more than 64 µg/mL; in [11] (culture number 9382) it was 1 µg/mL (≈ 1.35 µM); in test [12], 0.25 µg/mL (≈ 0.338 µM). For the same compound, it took 16 µg/mL (≈ 21.6 µM) to inhibit growth in test [13] (MIC).

For the compound `CC(C)(O/N=C(\C(=O)N[C@H]1CN(C(=O)NS(=O)(=O)N2CCN(NC(=O)c3cccc(=O)n3O)C2=O)C1=O)c1csc(N)n1)C(=O)O` [E42 (c), Propanoic acid, 2-[[[1-(2-amino-4-thiazolyl)-2[[1-[[[[3-[[(1,6-dihydro-1-hydroxy-2-oxo-6-pyridinyl)carbonyl]amino]-2-oxo-1-imidazolidinyl]sulfonyl]amino]carbonyl]-2-oxo-3-azetidinyl]-amino]-2-oxoethylidene]amino]oxy]-2-methyl-, [S-(Z)]-], the MIC in [1] (culture number 9379) is 0.25 µg/mL (≈ 0.365 µM); in test [1] (culture number 9380), 0.25 µg/mL (≈ 0.365 µM); in test [1] (culture number 9451), 0.5 µg/mL (≈ 0.73 µM); in [3] (culture number 231), 4 µg/mL (≈ 5.84 µM); in [3] (culture number 9191), 8 µg/mL (≈ 11.7 µM); in [4], 0.5 µg/mL (≈ 0.73 µM). For the same compound, the MIC in test [5] is 0.5 µg/mL (≈ 0.73 µM); in test [6] it was 0.5 µg/mL (≈ 0.73 µM); in test [7] it was more than 64 µg/mL; in [8] (culture number 3665), more than 64 µg/mL; in test [8] (culture number 6685), more than 64 µg/mL; in test [8] (culture number 9218) it was more than 64 µg/mL. The MIC in test [9] is more than 64 µg/mL; in [10] (culture number 9383), 8 µg/mL (≈ 11.7 µM); in [10] (culture number 9384), 0.5 µg/mL (≈ 0.73 µM); in test [11] (culture number 9381) it was more than 64 µg/mL; in test [11] (culture number 9382), 1 µg/mL (≈ 1.46 µM); in test [12] it was 0.06 µg/mL (≈ 0.0876 µM). The compound further registered an MIC in test [13] of 4 µg/mL (≈ 5.84 µM).

As for `CC(C)(O/N=C(\C(=O)N[C@H]1CN(C(=O)NS(=O)(=O)N2CCN(NC(=O)c3ccn(O)c(=O)c3)C2=O)C1=O)c1csc(N)n1)C(=O)O` [E42 (d), Propanoic acid, 2-[[[1-(2-amino-4-thiazolyl)-2-[[1-[[[[3-[[(1,2-dihydro-1-hydroxy-2-oxo-4-pyridinyl)carbonyl]amino]2-oxo-1-imidazolidinyl]sulfonyl]amino]carbonyl]-2-oxo-3-azetidinyl]amino]-2-oxoethylidene]amino]oxy]-2-methyl-, [S-(Z)]-], the MIC was 0.25 µg/mL (≈ 0.365 µM) in test [1] (culture number 9379); 0.25 µg/mL (≈ 0.365 µM) in test [1] (culture number 9380); 0.125 µg/mL (≈ 0.183 µM) in test [1] (culture number 9451); 1 µg/mL (≈ 1.46 µM) in [3] (culture number 231); 1 µg/mL (≈ 1.46 µM) in test [3] (culture number 9191); 0.25 µg/mL (≈ 0.365 µM) in test [4]. The MIC in test [5] is 0.5 µg/mL (≈ 0.73 µM); in [6], 0.25 µg/mL (≈ 0.365 µM); in [7] it was more than 64 µg/mL; in [8] (culture number 3665), more than 64 µg/mL; in test [8] (culture number 6685) it was more than 64 µg/mL; in [8] (culture number 9218), more than 64 µg/mL. For the same compound, the MIC is 64 µg/mL (≈ 93.5 µM) in [9]; 4 µg/mL (≈ 5.84 µM) in test [10] (culture number 9383); 0.25 µg/mL (≈ 0.365 µM) in test [10] (culture number 9384); 64 µg/mL (≈ 93.5 µM) in test [11] (culture number 9381); 0.5 µg/mL (≈ 0.73 µM) in test [11] (culture number 9382); 0.03 µg/mL (≈ 0.0438 µM) in test [12]. In test [13], this compound had an MIC of 4 µg/mL (≈ 5.84 µM).
